Like-named read-outs stand apart in the source and are kept apart here. Each block holds one compound with its values, some of them ahead of it.
How the values were obtained:
P. berghei [1] = conditions: mice, oral dosing; ref [29]; cited from earlier work
hDHODH = hDHODH (Homo sapiens, UniProt Q02127); conditions: cited from earlier work
P. falciparum 3D7 cells = conditions: read-out: EC50 (μM) Pf3D7; clone 3D7; ref [27],[29]; cited from earlier work
[2] = human liver microsomes; ref Gujjar et al. [29]; cited from earlier work
PfDHODH = target: T1, PfDHODH (Plasmodium falciparum, UniProt Q08210); experiment: biochemical; assay type: biochemical; conditions: for fold less potent against PfDHODH than the comparable triazolopyrimidine 1: reduction in binding affinity/activity relative to 1
T1 sequence (Q08210 24-569): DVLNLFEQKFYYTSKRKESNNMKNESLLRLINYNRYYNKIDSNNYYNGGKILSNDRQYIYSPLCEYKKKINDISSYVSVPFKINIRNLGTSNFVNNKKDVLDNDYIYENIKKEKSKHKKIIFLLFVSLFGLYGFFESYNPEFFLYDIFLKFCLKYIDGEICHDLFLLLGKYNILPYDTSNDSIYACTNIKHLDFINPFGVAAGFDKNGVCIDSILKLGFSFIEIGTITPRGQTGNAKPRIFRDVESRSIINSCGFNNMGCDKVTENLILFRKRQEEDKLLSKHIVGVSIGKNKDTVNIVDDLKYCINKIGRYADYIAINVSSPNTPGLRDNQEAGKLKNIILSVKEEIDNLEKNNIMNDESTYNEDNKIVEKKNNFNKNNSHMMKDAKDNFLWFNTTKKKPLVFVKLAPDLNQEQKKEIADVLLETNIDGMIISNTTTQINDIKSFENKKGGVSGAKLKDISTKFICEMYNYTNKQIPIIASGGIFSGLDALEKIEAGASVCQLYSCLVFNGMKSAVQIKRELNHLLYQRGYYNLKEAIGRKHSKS

[3] = Mouse pharmacokinetics after single oral dose; assay type: in vivo; conditions: mice
[4] = In vitro metabolic stability in mouse liver microsomes; assay type: in vitro ADME
P. berghei [5] = experiment: P. berghei mouse in vivo efficacy model; design: species or system Plasmodium berghei; conditions: mice
PbDHODH = PbDHODH (Plasmodium berghei, UniProt A0A509AEH5); experiment: PbDHODH steady-state colorimetric DCIP enzyme assay; assay type: biochemical; conditions: relative to 2
[6] = In vitro metabolic stability in human liver microsomes; assay type: in vitro ADME

Chain of hDHODH (Q02127 whole entry): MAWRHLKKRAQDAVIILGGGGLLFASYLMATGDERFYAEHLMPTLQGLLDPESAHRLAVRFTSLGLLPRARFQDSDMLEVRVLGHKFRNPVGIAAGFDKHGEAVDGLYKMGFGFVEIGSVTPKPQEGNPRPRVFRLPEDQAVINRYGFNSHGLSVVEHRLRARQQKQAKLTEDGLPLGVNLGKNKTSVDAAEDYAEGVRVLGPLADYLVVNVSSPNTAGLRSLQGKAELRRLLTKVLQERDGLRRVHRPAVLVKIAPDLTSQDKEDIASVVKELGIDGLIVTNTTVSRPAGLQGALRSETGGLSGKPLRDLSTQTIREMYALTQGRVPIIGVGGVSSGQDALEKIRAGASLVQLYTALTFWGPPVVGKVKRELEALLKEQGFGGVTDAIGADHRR
Chain of PbDHODH (A0A509AEH5 132-517 limits assumed): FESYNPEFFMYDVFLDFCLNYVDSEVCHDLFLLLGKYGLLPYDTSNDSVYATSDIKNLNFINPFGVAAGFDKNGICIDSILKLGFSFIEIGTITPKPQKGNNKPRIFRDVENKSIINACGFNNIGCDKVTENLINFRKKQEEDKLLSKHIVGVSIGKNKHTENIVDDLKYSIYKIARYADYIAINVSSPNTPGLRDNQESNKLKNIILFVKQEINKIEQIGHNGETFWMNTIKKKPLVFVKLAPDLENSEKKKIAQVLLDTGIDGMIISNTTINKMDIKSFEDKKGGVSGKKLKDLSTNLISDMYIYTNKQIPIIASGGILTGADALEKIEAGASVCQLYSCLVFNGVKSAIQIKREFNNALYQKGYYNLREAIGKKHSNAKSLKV

Compound: Cc1cc(Nc2ccc3ccccc3c2)n2ncnc2n1 [Compound 1, (5-methyl-[1,2,4]triazolo[1,5-a]pyrimidin-7-yl)naphthalene-2-ylamine]
in vivo efficacy in the P. berghei model (in words) (P. berghei [1]): no anti-parasite activity
IC50 (hDHODH; read-out: IC50 (μM) hDHODH, ref [27],[29]): > 100 µM
activity against human DHODH (in words) (hDHODH; ref [26]–[28]): without inhibiting human DHODH
EC50 (P. falciparum 3D7 cells): 0.076 µM

Compound: Cc1cc(Nc2ccc(C(F)(F)F)cc2)n2ncnc2n1 [Compound 2, 5-methyl-N-(4-(trifluoromethyl)phenyl)-[1,2,4]triazolo[1,5-a]pyrimidin-7-amine]
in vivo efficacy in the P. berghei model (in words) (P. berghei [1]): able to suppress parasitemia
Predicted EH [2]: 0.29

Compound: Cc1cc(NC(=O)c2ccccc2)n2ncnc2n1 [Compound 4, N-(5-methyl-[1,2,4]triazolo[1,5-a]pyrimidin-7-yl)benzamide]
IC50 (PfDHODH): > 100 µM
PfDHODH activity (in words) (PfDHODH): loss of activity

Compound: Cc1cc(NC(=O)c2ccc(C(F)(F)F)cc2)n2ncnc2n1 [Compound 5]
IC50 (PfDHODH): > 100 µM
PfDHODH activity (in words) (PfDHODH): loss of activity

Compound: Cc1cc(Nc2ccc3ccccc3c2)n2ccnc2n1 [Compound 6, 7-Methyl-N-(naphthalen-2-yl)imidazo[1,2-a]pyrimidin-5-amine]
fold less potent against PfDHODH than the comparable triazolopyrimidine 1 (PfDHODH): 3 fold

fold less potent against PfDHODH than the comparable triazolopyrimidine 1 (PfDHODH): 100 fold
Compound: Cc1cc(Nc2ccc3ccccc3c2)n2ncnc2c1 [Compound 7, 7-Methyl-N-(naphthalen-2-yl)-[1,2,4]triazolo[1,5-a]pyridin-5-amine]

Compound: Cc1cc(Nc2ccc3ccccc3c2)n2nccc2n1 [Compound 8, 5-Methyl-N-(naphthalen-2-yl)pyrazolo[1,5-a]pyrimidin-7-amine]
fold less potent against PfDHODH than the comparable triazolopyrimidine 1 (PfDHODH): ~ 8.5 fold

Compound: Cc1nc(Nc2ccc3ccccc3c2)c2nc[nH]c2n1 [Compound 9, 2-Methyl-N-(naphthalen-2-yl)-9H-purin-6-amine]
fold less potent against PfDHODH than the comparable triazolopyrimidine 1 (PfDHODH): ~ 9 fold

IC50 (PfDHODH): > 100 µM
PfDHODH activity (in words) (PfDHODH): inactivated
Compound: Cc1nc(Nc2ccc3ccccc3c2)c2cn[nH]c2n1 [Compound 10, 6-Methyl-N-(naphthalen-2-yl)-1H-pyrazolo[3,4-d]pyrimidin-4-amine]

IC50 (PfDHODH): > 50 µM
PfDHODH activity (in words) (PfDHODH): inactivated
Compound: Cc1cc(Nc2ccc3ccccc3c2)c2nncn2n1 [Compound 11, 6-Methyl-N-(naphthalen-2-yl)-[1,2,4]triazolo[4,3-b]pyridazin-8-amine]

IC50 (PfDHODH): > 25 µM
Compound: Cc1nc(Nc2ccc3ncccc3c2)c2nc[nH]c2n1 [Compound 14, N-(2-Methyl-9H-purin-6-yl)quinolin-6-amine]

IC50 (PfDHODH): > 100 µM
PfDHODH activity (in words) (PfDHODH): inactive
Compound: Cc1nc(Nc2n[nH]cc2C#N)c2nc[nH]c2n1 [Compound 15, 3-(2-Methyl-9H-purin-6-ylamino)-1H-pyrazole-4-carbonitrile]

Compound: Cc1cc(Nc2ccc(C(F)(F)F)cc2)n2ccnc2n1 [Compound 16, 7-Methyl-N-(4-(trifluoromethyl)phenyl)imidazo[1,2-a]pyrimidin-5-amine]
adverse reactions following oral administration ([3]; 10 mg/kg oral): No adverse reactions were observed
peak plasma concentrations ([3]; single oral dose 10 mg/kg): 3.9 µM
time plasma levels maintained above 1 μM ([3]; single oral dose 10 mg/kg): about 4 h
Putative metabolites ([4]; mouse liver microsomes): None detected
Predicted EH ([4]; mouse liver microsomes, predicted in vivo hepatic extraction ratio): 0.59
in vitro clearance class ([4]; mouse microsomes): intermediate
microsomal CLint at 1 μM ([4]; mouse, pooled mouse liver microsomes): 34 µL/min/mg
fold more potent against PfDHODH than the equivalent triazolopyrimidine 2 (PfDHODH; relative to 2): 4 fold
in vivo efficacy in the P. berghei model (in words) (P. berghei [5]): suppresses parasites in vivo
fold better potency against PbDHODH than 2 (PbDHODH): 2 fold
Putative metabolites ([6]; human liver microsomes): None detected
Predicted EH ([6]; human liver microsomes, predicted in vivo hepatic extraction ratio): 0.21
microsomal CLint at 1 μM ([6]; human, pooled human liver microsomes): 4.7 µL/min/mg

— PMC3446820 (Journal of medicinal chemistry, 2012)
